According to ChEMBL document CHEMBL3991601, “The target landscape of clinical kinase drugs” (Science, 2017):
Activity calls are given as the source filed them.

Legend:
[1] = molecular target: Protein kinase C beta type (Homo sapiens, UniProt P05771)
[2] = molecular target: T1, MAP kinase-activated protein kinase 5 (Homo sapiens, UniProt Q8IW41)
T1 sequence (Q8IW41 whole entry): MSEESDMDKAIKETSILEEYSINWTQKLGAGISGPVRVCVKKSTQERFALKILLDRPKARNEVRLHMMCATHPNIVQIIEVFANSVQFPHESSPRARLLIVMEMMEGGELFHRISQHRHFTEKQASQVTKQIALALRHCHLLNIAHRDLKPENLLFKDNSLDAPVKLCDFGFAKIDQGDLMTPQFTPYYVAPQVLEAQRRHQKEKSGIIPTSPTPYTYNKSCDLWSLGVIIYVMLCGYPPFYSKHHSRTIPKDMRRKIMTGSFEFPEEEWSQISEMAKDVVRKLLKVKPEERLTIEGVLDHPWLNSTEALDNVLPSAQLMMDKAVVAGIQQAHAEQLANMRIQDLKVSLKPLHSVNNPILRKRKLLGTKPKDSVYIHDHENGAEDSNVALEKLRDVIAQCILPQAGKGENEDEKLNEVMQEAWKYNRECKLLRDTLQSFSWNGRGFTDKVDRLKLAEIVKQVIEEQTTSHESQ

[3] = molecular target: T2, Serine/threonine-protein kinase Nek2 (Homo sapiens, UniProt P51955)
T2 sequence (P51955 whole entry): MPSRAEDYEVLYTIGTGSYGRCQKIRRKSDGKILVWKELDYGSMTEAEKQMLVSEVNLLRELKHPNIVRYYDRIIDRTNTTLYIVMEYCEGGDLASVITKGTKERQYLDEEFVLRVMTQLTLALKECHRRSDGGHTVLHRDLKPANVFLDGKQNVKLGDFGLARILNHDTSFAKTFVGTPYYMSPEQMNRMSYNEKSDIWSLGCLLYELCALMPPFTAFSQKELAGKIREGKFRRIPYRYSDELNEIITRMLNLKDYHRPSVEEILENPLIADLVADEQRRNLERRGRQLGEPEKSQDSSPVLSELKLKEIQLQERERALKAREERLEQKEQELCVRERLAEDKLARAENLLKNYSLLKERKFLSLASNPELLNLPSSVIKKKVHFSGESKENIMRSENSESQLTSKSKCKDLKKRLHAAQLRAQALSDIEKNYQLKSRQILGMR

[4] = molecular target: T3, Calcium/calmodulin-dependent protein kinase type IV (Homo sapiens, UniProt Q16566)
T3 sequence (Q16566 whole entry): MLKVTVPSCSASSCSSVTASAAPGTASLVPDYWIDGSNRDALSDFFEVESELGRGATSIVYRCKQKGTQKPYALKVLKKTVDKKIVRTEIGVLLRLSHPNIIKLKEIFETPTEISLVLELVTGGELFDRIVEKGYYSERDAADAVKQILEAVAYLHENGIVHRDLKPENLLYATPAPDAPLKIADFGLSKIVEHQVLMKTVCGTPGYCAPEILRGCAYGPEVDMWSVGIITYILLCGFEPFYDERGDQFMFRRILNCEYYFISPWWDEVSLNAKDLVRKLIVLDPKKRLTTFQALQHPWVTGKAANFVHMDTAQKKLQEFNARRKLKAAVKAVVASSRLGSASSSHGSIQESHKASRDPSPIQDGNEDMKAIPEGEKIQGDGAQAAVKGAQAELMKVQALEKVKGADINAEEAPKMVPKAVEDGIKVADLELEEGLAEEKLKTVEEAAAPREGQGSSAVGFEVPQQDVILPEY

[5] = molecular target: Non-receptor tyrosine-protein kinase TYK2 (Homo sapiens, UniProt P29597)
[6] = molecular target: T4, Dual specificity mitogen-activated protein kinase kinase 5 (Homo sapiens, UniProt Q13163)
T4 sequence (Q13163 whole entry): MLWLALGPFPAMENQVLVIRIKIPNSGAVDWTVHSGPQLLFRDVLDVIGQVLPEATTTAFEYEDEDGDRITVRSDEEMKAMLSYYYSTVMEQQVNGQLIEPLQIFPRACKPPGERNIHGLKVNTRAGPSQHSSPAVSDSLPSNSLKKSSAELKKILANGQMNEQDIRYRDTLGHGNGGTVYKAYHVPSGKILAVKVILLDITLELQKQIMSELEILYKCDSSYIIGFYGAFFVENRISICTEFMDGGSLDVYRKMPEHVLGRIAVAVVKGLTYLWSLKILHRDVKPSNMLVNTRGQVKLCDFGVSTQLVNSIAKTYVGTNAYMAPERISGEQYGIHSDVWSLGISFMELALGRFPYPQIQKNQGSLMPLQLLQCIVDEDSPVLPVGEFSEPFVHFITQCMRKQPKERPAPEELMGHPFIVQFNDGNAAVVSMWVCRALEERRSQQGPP
Note: in the data inactive means no Kd found up to 30 µM.

Chain of Non-receptor tyrosine-protein kinase TYK2 (P29597 whole entry): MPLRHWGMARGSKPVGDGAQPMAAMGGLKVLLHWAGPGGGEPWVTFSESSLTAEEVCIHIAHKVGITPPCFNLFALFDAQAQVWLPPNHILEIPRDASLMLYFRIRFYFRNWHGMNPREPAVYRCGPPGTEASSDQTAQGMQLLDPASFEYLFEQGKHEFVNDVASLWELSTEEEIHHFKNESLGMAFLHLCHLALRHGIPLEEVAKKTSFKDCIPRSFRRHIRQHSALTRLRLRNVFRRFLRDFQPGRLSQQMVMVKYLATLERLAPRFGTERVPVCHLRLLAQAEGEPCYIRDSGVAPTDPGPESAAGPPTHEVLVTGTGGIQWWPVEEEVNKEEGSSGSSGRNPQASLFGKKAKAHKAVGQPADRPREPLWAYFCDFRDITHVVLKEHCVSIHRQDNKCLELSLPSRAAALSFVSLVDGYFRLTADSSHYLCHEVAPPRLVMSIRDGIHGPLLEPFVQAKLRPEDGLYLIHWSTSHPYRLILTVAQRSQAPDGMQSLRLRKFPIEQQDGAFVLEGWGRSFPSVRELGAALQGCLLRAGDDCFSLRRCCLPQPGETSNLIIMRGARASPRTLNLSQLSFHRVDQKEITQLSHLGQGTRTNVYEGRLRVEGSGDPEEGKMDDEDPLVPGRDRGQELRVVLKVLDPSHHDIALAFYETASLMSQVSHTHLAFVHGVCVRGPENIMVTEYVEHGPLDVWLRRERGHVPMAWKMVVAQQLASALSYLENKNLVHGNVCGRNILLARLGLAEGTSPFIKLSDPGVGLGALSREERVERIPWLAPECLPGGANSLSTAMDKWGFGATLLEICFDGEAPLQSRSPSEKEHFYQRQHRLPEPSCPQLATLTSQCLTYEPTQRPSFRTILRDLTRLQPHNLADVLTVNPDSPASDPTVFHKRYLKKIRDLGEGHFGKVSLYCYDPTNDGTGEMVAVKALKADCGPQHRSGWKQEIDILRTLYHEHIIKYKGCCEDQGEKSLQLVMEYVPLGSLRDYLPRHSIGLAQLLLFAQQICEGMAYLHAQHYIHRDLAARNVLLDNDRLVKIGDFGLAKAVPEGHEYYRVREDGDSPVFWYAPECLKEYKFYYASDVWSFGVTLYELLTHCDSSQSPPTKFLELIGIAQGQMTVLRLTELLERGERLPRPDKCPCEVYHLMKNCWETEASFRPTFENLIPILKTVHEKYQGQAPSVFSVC
Chain of Protein kinase C beta type (P05771 whole entry): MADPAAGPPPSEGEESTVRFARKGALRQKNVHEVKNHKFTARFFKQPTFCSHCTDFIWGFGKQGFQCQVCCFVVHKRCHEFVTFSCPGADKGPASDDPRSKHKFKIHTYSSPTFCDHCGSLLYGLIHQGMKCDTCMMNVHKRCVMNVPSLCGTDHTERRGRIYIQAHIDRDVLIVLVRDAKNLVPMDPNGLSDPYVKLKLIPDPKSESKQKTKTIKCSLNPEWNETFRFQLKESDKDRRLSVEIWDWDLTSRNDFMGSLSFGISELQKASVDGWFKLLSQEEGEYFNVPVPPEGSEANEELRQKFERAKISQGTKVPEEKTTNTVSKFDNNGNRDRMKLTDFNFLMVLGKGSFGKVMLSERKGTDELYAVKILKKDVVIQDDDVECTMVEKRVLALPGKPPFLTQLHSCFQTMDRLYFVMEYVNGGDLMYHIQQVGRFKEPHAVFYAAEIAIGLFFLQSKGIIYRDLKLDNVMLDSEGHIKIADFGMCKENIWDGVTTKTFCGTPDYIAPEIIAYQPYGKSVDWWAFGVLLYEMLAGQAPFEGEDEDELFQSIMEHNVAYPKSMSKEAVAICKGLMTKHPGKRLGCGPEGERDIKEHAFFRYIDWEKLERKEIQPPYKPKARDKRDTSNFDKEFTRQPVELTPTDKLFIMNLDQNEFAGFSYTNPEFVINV

| SMILES | Kd [1] | Kd [2] | Kd [3] | Kd [4] | Kd [5] | Kd [6] |
| --- | --- | --- | --- | --- | --- | --- |
| C[C@H]1CNCCCN1S(=O)(=O)c1cccc2cncc(F)c12 | > 30 µM (inactive) | – | > 30 µM (inactive) | > 30 µM (inactive) | > 30 µM (inactive) | > 30 µM (inactive) |
| CC(=O)c1cnc2ccc(-c3cc(Cl)c(O)c(Cl)c3)nc2c1N[C@H]1CC[C@H](CN(C)C)CC1 | 0.233 µM (active) | 0.272 µM (active) | > 30 µM (inactive) | > 30 µM (inactive) | > 30 µM (inactive) | 0.058 µM (active) |
| C=CC(=O)N1CCC[C@H](n2c(=O)n(-c3ccc(Oc4ccccc4)cc3)c3c(N)ncnc32)C1 | > 30 µM (inactive) | > 30 µM (inactive) | > 30 µM (inactive) | > 30 µM (inactive) | > 30 µM (inactive) | > 30 µM (inactive) |
| Cc1nc2cc(-c3nn(C(C)C)c4ncnc(N)c34)ccc2o1 | > 30 µM (inactive) | > 30 µM (inactive) | > 30 µM (inactive) | 5.96 µM (active) | > 30 µM (inactive) | – |
| COCc1c(-c2ccc(NC(=O)Nc3cc(C(F)(F)F)ccc3F)c(F)c2)c2c(N)ncnn2c1CN1CCOCC1 | > 30 µM (inactive) | > 30 µM (inactive) | > 30 µM (inactive) | > 30 µM (inactive) | > 30 µM (inactive) | > 30 µM (inactive) |
| Cc1nc(NC(=O)N2CCC[C@H]2C(N)=O)sc1-c1ccnc(C(C)(C)C(F)(F)F)c1 [ALPELISIB] | > 30 µM (inactive) | > 30 µM (inactive) | > 30 µM (inactive) | – | > 30 µM (inactive) | > 30 µM (inactive) |
| O=C(Nc1c[nH]nc1-c1nc2cc(CN3CCOCC3)ccc2[nH]1)NC1CC1 [AT-9283] | 3.38 µM (active) | 0.589 µM (active) | > 30 µM (inactive) | > 30 µM (inactive) | – | 0.047 µM (active) |
| COc1cc([C@@H]2c3cc4c(cc3[C@H](O)[C@H]3COC(=O)[C@@H]23)OCO4)cc(OC)c1OC [AXL-1717] | > 30 µM (inactive) | > 30 µM (inactive) | > 30 µM (inactive) | > 30 µM (inactive) | > 30 µM (inactive) | > 30 µM (inactive) |
| CCn1c(C(=O)N(C2CC2)C2CC2)cc2c3c(ncn3C)c(Nc3cc(C)n(C)n3)nc21 [BMS-911543] | > 30 µM (inactive) | – | > 30 µM (inactive) | > 30 µM (inactive) | > 30 µM (inactive) | > 30 µM (inactive) |
| CC(C)(C)c1nc(-c2cccc(NS(=O)(=O)c3c(F)cccc3F)c2F)c(-c2ccnc(N)n2)s1 [DABRAFENIB] | > 30 µM (inactive) | – | – | – | – | 2.29 µM (active) |
| O=C(Nc1nc2cccc(-c3ccc(CN4CCS(=O)(=O)CC4)cc3)n2n1)C1CC1 [FILGOTINIB] | > 30 µM (inactive) | > 30 µM (inactive) | > 30 µM (inactive) | > 30 µM (inactive) | – | > 30 µM (inactive) |
| C[C@@H](Oc1cc(-n2cnc3ccc(CN4CCN(C)CC4)cc32)sc1C(N)=O)c1ccccc1C(F)(F)F [GSK-461364] | > 30 µM (inactive) | – | – | – | – | – |
| O=C(Nc1cc(C(F)(F)F)cc(C(F)(F)F)c1)c1cc(Cl)ccc1O [IMD-0354] | > 30 µM (inactive) | > 30 µM (inactive) | – | > 30 µM (inactive) | > 30 µM (inactive) | > 30 µM (inactive) |
| Cc1[nH]c(/C=C2\C(=O)Nc3ccccc32)c(C)c1CCC(=O)O [ORANTINIB] | > 30 µM (inactive) | – | – | > 30 µM (inactive) | – | 4.94 µM (active) |
| NC(=O)c1c(OCc2c(F)cc(Br)cc2F)nsc1NC(=O)NCCCCN1CCCC1 [OSI-632] | > 30 µM (inactive) | – | – | > 30 µM (inactive) | – | > 30 µM (inactive) |
| CCOc1cc2ncc(C#N)c(Nc3ccc(F)c(Cl)c3)c2cc1NC(=O)/C=C/CN(C)C [PELITINIB] | > 30 µM (inactive) | > 30 µM (inactive) | – | > 30 µM (inactive) | > 30 µM (inactive) | > 30 µM (inactive) |
| CC(=O)NCC(=O)N1[C@@H]2CC[C@H]1c1ccc(Nc3ncc(C(F)(F)F)c(NC4CCC4)n3)cc12 [PF-03814735] | > 30 µM (inactive) | – | – | > 30 µM (inactive) | – | – |
| O=C(NOCCO)c1cc(CN2OCCCC2=O)c(F)c(F)c1Nc1ccc(I)cc1F [RO-4987655] | > 30 µM (inactive) | – | – | – | – | – |
| N#CC[C@H](C1CCCC1)n1cc(-c2ncnc3[nH]ccc23)cn1 [RUXOLITINIB] | > 30 µM (inactive) | – | – | – | – | – |
| CN1CCN(CCOc2cc(OC3CCOCC3)c3c(Nc4c(Cl)ccc5c4OCO5)ncnc3c2)CC1 [SARACATINIB] | > 30 µM (inactive) | > 30 µM (inactive) | > 30 µM (inactive) | > 30 µM (inactive) | > 30 µM (inactive) | – |
| Cn1ncc(Cl)c1-c1cc(C(=O)N[C@H](CN)Cc2ccc(F)c(F)c2)oc1Cl [UPROSERTIB] | – | > 30 µM (inactive) | > 30 µM (inactive) | – | > 30 µM (inactive) | > 30 µM (inactive) |

Further lines, results first:

| Kd [1] | Kd [2] | Kd [3] | Kd [4] | Kd [5] | Kd [6] | SMILES |
| --- | --- | --- | --- | --- | --- | --- |
| > 30 µM (inactive) | > 30 µM (inactive) | > 30 µM (inactive) | > 30 µM (inactive) | > 30 µM (inactive) | > 30 µM (inactive) | C[C@@H](Oc1cc(C(=O)Nc2ccc(C(=O)N3CCN(C)CC3)cc2)nnc1N)c1c(Cl)ccc(F)c1Cl |
| > 30 µM (inactive) | – | > 30 µM (inactive) | > 30 µM (inactive) | > 30 µM (inactive) | 0.177 µM (active) | CCNC(=O)C#Cc1ccc2c(c1)NC(=O)/C2=C(\Nc1ccc(CN(C)C)cc1)c1ccccc1 |
| > 30 µM (inactive) | > 30 µM (inactive) | > 30 µM (inactive) | > 30 µM (inactive) | > 30 µM (inactive) | 0.146 µM (active) | Nc1ncnc2c1c(-c1cccc(OCc3ccccc3)c1)cn2[C@H]1C[C@@H](CN2CCC2)C1 [AEW-541] |
| > 30 µM (inactive) | – | – | > 30 µM (inactive) | – | > 30 µM (inactive) | COc1cc(Nc2ncc3c(n2)-c2ccc(Cl)cc2C(c2c(F)cccc2OC)=NC3)ccc1C(=O)O [ALISERTIB] |
| > 30 µM (inactive) | > 30 µM (inactive) | > 30 µM (inactive) | 1.82 µM (active) | > 30 µM (inactive) | > 30 µM (inactive) | Cc1csc(-c2nnc(Nc3ccc(Oc4ncccc4-c4ccnc(N)n4)cc3)c3ccccc23)c1 [AMG-900] |
| > 30 µM (inactive) | > 30 µM (inactive) | > 30 µM (inactive) | – | > 30 µM (inactive) | > 30 µM (inactive) | C=CC(=O)Nc1cc2c(Nc3ccc(F)c(Cl)c3)ncnc2cc1C#CC(C)(C)N1CCN(C)CC1 [AV-412 FREE BASE] |
| > 30 µM (inactive) | – | – | – | – | – | CNC(=O)c1ccccc1Sc1ccc2c(/C=C/c3ccccn3)n[nH]c2c1 [AXITINIB] |
| > 30 µM (inactive) | > 30 µM (inactive) | > 30 µM (inactive) | – | > 30 µM (inactive) | > 30 µM (inactive) | Cc1nc2cc(-n3ncc(C(=O)c4cc5ccccc5[nH]4)c3N)ccc2[nH]1 [FGFR INHIBITOR DEBIO 1347] |
| > 30 µM (inactive) | > 30 µM (inactive) | > 30 µM (inactive) | > 30 µM (inactive) | – | 1.93 µM (active) | CCn1cc(-c2ccnc3[nH]c(-c4cccc(CN(C)C)c4)cc23)c(-c2ccc(NC(=O)N(C)C)cc2)n1 [GSK-1070916] |
